How the values were obtained:
[1] = molecular target: T1, PIM1 (Homo sapiens, UniProt P11309); test: Pim-1 kinase enzymatic assay (Caliper LC3000, FAM-Pimtide substrate); type: biochemical; settings: 20 pM PIM1, 10 μM ATP, 90 minutes; read-out: PIM1 LC3K (Ki)
T1 construct: made in house
Description: (§1) Reaction Buffer contained 10 mM HEPES, pH 7.2, 10 mM MgCl2, 0.01% Tween 20, 2 mM DTT.
(§2) PIM reactions were carried out in a final volume of 10 μL per well in a 384-well plate. […] The separation of product and substrate was optimized by choosing voltages and pressure using Caliper's Optimizer software (Hopkinton, Mass.). The separation conditions used a downstream voltage of −500V, an upstream voltage of −2150V, and a screening pressure of −1.2 psi. […] Substrate conversion was calculated from the electrophoregram using HTS Well Analyzer software (Caliper Life Sciences, Hopkinton, Mass.). Ki values for the test compound were calculated.

[2] = molecular target: T2, PIM2 (Homo sapiens, UniProt Q9P1W9); test: Pim-2 kinase enzymatic assay (Caliper LC3000, FAM-Pimtide substrate); type: biochemical; settings: 50 pM PIM2, 10 μM ATP, 90 minutes; read-out: PIM2 LC3K (Ki)
T2 construct: made in house
Description: as §1, §2

[3] = molecular target: T3, PIM3 (Homo sapiens, UniProt Q86V86); test: Pim-3 kinase enzymatic assay (Caliper LC3000, FAM-Pimtide substrate); type: biochemical; settings: 55 pM PIM3, 10 μM ATP, 90 minutes; read-out: PIM3 LC3K (Ki)
T3 construct: made in house
Description: as §1, §2

[4] = molecular target: BaF3 PIM1 cells (Homo sapiens, UniProt P11309); test: BaF3 PIM1 cell proliferation (Cell Titer Glo); type: cell-based; settings: incubated overnight; read-out: Prolif BaF3_PIM1 (IC50)
Description: (§3) BaF3 parental line was obtained from the DSMZ repository. BaF3 lines transfected with PIM1 or PIM2 were generated. Mouse IL-3 was purchased from R&D Systems. G418 was purchased from Clontech. Media for BaF3 parental line contained RPMI, 10% FBS, 2 mM L-Glutamine, 2 ng/mL mIL-3. Media for BaF3 PIM1 & 2 lines contained RPMI, 10% FBS, 2 mM L-Glutamine, […]. Media for MM1.S line contained RPMI, 10% FBS, 2 mM L-Glutamine.
(§4) BaF3 parental cells, BaF3 PIM1 cells, BaF3 PIM2 cells, and MM1.S cells were seeded at 2 k/well, 5 k/well, 5 k/well, and 10 k/well respectively, in a 384-well plate, at 45 μL/well. Test compound was added at 5 μL/well. BaF3 cells (parental and transfected) were incubated overnight, while MM1.S cells were incubated for 72 hours at 37° C., 5% CO2. Cell Titer Glo Reagent (Promega) was added at 50 μL/well, the plates were incubated for 30 minutes, and their luminescence read on an HT Analyst. IC50/EC50 values for the test compound were calculated.

[5] = molecular target: BaF3 PIM2 cells (Homo sapiens, UniProt Q9P1W9); test: BaF3 PIM2 cell proliferation (Cell Titer Glo); type: cell-based; settings: incubated overnight; read-out: Prolif BaF3_PIM2 (IC50)
Description: as §3, §4

[6] = tested on: MM1.S cells; test: MM1.S cell proliferation, 72 hours (Cell Titer Glo); type: cell-based; settings: Homo sapiens, 72 hours, read-out: Prolif MM1S ATP (EC50)
Description: as §3, §4

BaF3 PIM1 cells, sequence (P11309 whole entry, change not shown): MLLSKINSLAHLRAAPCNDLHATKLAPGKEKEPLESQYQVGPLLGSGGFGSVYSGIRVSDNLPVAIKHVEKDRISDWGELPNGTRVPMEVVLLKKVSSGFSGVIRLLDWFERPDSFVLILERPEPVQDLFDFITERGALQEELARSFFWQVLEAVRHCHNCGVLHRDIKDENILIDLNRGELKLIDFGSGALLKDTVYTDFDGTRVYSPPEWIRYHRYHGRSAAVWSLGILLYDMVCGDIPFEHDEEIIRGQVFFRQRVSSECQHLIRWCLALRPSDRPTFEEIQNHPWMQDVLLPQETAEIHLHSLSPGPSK
T1 sequence (P11309 whole entry): as the sequence (P11309 whole entry, change not shown) above
BaF3 PIM2 cells, sequence (Q9P1W9 whole entry, change not shown): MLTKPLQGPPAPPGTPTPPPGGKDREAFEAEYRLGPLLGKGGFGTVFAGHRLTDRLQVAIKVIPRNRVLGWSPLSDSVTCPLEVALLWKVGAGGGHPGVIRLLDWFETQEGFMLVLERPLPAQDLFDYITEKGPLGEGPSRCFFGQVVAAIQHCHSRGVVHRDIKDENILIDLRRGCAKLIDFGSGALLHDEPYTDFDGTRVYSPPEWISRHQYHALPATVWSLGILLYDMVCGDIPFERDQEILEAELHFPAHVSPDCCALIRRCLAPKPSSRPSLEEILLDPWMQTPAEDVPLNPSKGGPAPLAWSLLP
T2 sequence (Q9P1W9 whole entry): as the sequence (Q9P1W9 whole entry, change not shown) above

| Ki [1] [nM] | Ki [2] [nM] | Ki [3] [nM] | GI50 [4] [nM] | GI50 [5] [nM] | EC50 [6] [nM] | SMILES |
| --- | --- | --- | --- | --- | --- | --- |
| 3.47 | 16.3 | 9.53 | 713 | > 20000 | > 20000 | Cc1nc(C(=O)Nc2cnccc2N2CCC[C@H](N)C2)c(N)s1 [Example 8, (S)-5-amino-N-(4-(3-aminopiperidin-1-yl)pyridin-3-yl)-2-methylthiazole-4-carboxamide] |
| 0.058 | 0.565 | 0.07 | 48.9 | 4300 | 1600 | CC(C)Oc1ccc(F)c(-c2nc(C(=O)Nc3cnccc3N3CCC[C@H](N)C3)c(N)s2)c1F [Example 29, (S)-5-amino-N-(4-(3-aminopiperidin-1-yl)pyridin-3-yl)-2-(3-isopropyloxy-2,6-difluorophenyl)thiazole-4-carboxamide] |
| 0.0464 | 0.339 | 0.023 | 66.5 | 2300 | 1300 | Cc1cccc(-c2nc(C(=O)Nc3cnccc3N3CCC[C@H](N)C3)c(N)s2)c1 [Example 31, (S)-5-amino-N-(4-(3-aminopiperidin-1-yl)pyridin-3-yl)-2-(3-tolylthiazole)-4-carboxamide] |
| 0.642 | 18.2 | 1.01 | 7100 | > 20000 | 10400 | Nc1sc(-c2ccc3nccn3c2)nc1C(=O)Nc1cnccc1N1CCC[C@H](N)C1 [Example 61, (S)-5-amino-N-(4-(3-aminopiperidin-1-yl)pyridin-3-yl)-2-(imidazo[1,2-a]pyridin-6-yl)thiazole-4-carboxamide] |
| 14 | 76.5 | 6.81 | > 20000 | > 20000 | > 20000 | Nc1sc(-c2c(F)cccc2F)nc1C(=O)Nc1cnccc1Cl [Example 17, 5-amino-N-(4-chloropyridin-3-yl)-2-(2,6-difluorophenyl)thiazole-4-carboxamide] |
| 0.102 | 0.434 | 0.118 | 135 | 2800 | 1900 | CCCCOc1ccc(F)c(-c2nc(C(=O)Nc3cnccc3N3CCC[C@H](N)C3)c(N)s2)c1F [Example 28, (S)-5-amino-N-(4-(3-aminopiperidin-1-yl)pyridin-3-yl)-2-(3-butyloxy-2,6-difluorophenyl)thiazole-4-carboxamide] |
| 0.502 | 0.885 | 0.166 | 607 | 13200 | 9200 | Nc1sc(-c2cccnc2)nc1C(=O)Nc1cnccc1N1CCC[C@H](N)C1 [Example 11, (S)-5-amino-N-(4-(3-aminopiperidin-1-yl)pyridin-3-yl)-2-(pyridin-3-yl)thiazole-4-carboxamide] |
| 0.04 | 0.248 | 0.05 | 75.7 | 3900 | 558 | CCCOc1ccc(F)c(-c2nc(C(=O)Nc3cnccc3N3CCC[C@H](N)C3)c(N)s2)c1F [Example 27, (S)-5-amino-N-(4-(3-aminopiperidin-1-yl)pyridin-3-yl)-2-(3-propyloxy-2,6-difluorophenyl)thiazole-4-carboxamide] |
| 1.56 | 3.83 | 2.26 | 926 | > 20000 | 10000 to 20000 | CC(C)(C)c1nc(C(=O)Nc2cnccc2N2CCC[C@H](N)C2)c(N)s1 [Example 16, (S)-5-amino-N-(4-(3-aminopiperidin-1-yl)pyridin-3-yl)-2-tert-butylthiazole-4-carboxamide] |
| 0.11 | 2.88 | 0.229 | 494 | > 20000 | 5100 | Nc1sc(-c2cnc3ccccn23)nc1C(=O)Nc1cnccc1N1CCC[C@H](N)C1 [Example 57, (S)-5-amino-N-(4-(3-aminopiperidin-1-yl)pyridin-3-yl)-2-(imidazo[1,2-a]pyridin-3-yl)thiazole-4-carboxamide] |

Source: patent US8435976B2, “4-substituted pyridin-3-yl-carboxamide compounds and methods of use” (F. Hoffmann-La Roche, priority 2009, dated 2013)
